According to US20200038383A1, “IMMEDIATE-RELEASE ABUSE DETERRENT CO[…] MEDICAMENTS FOR TREATING PAIN, ADD, ADHD AND OTHER SYNDROMES OR DISORDERS” (KEMPHARM, INC., priority 2016, published 2020):
Where no end group is shown, it is not given here.

Key:
[1] = Tamper resistance study (extraction methods, HPLC); format: physicochemical
Source text: Certain prodrug conjugates of the present technology were exposed to various commonly applied “extraction methods” to test for hydrolysis and/or decomposition of the prodrug.

[2] = Oral dose escalation study in rats; details: oral solutions, escalating dosages
[3] = Oral PK of hydrocodone conjugates in rats (plasma hydrocodone, hydromorphone, intact conjugate by LC-MS/MS)
[4] = Hydrolysis to hydrocodone in 1 N HCl; details: 1 hour
[5] = Chemical stability (hydrolysis) of hydrocodone conjugates in water; format: physicochemical; details: one hour
Experimental: Exemplary conjugates of hydrocodone of the present technology and control test conjugates not of the present technology were tested for chemical stability under conditions similar to what a potential drug abuser may use to “extract” the active portion of the molecule, for example dissolved in water, hydrochloric acid or sodium bicarbonate either at ambient temperature or 100° C.

[6] = Water solubility / feasibility of intravenous administration
[7] = Hydrolysis in 5% NaHCO3; format: physicochemical; details: one hour
[8] = Intranasal PK of hydrocodone conjugates in rats; details: equivalent to 2 mg/kg hydrocodone freebase
[9] = Oral PK in dogs; details: equivalent to 2 mg/kg freebase hydrocodone
[10] = equivalent to 2 mg/kg hydrocodone freebase
[11] = ambient temperature (about 20° C.)
[12] = equivalent to 2 mg/kg freebase hydrocodone

Compound: CC(=O)Oc1ccccc1C(=O)OC1=CCC2C3Cc4ccc(OC(=O)c5ccccc5OC(C)=O)c5c4C2(CCN3C)C1O5 (stereo not drawn) [3,6-di-aspirin-HM, 3,6,-di-aspirin-hydromorphone]
- stability under commonly applied extraction methods [1]: chemically stable
- Release of hydromorphone (as %-AUC by HPLC) ([1]; 1 N HCl, ambient temperature, 30 min.): 0%
- Release of hydromorphone (as %-AUC by HPLC) ([1]; 1 N HCl, ambient temperature, 60 min.): 0%
- Release of hydromorphone (as %-AUC by HPLC) ([1]; 1 N NaOH, ambient temperature, 30 min.): 1%
- Release of hydromorphone (as %-AUC by HPLC) ([1]; 1 N NaOH, ambient temperature, 60 min.): 1%
- Release of hydromorphone (as %-AUC by HPLC) ([1]; 4 N NaOH, ambient temperature, 30 min.): 1%
- Release of hydromorphone (as %-AUC by HPLC) ([1]; 4 N NaOH, ambient temperature, 60 min.): 6%
- Release of hydromorphone (as %-AUC by HPLC) ([1]; 5% Acetic acid, ambient temperature, 30 min.): 0%
- Release of hydromorphone (as %-AUC by HPLC) ([1]; 5% Acetic acid, ambient temperature, 60 min.): 0%
- Release of hydromorphone (as %-AUC by HPLC) ([1]; Glacial acetic acid, ambient temperature, 30 min.): 0%
- Release of hydromorphone (as %-AUC by HPLC) ([1]; Glacial acetic acid, ambient temperature, 60 min.): 0%
- Release of hydromorphone (as %-AUC by HPLC) ([1]; Sat. NaHCO3, ambient temperature, 30 min.): 0%
- Release of hydromorphone (as %-AUC by HPLC) ([1]; Sat. NaHCO3, ambient temperature, 60 min.): 0%
- Release of hydromorphone (as %-AUC by HPLC) ([1]; Water, ambient temperature, 30 min.): 0%
- Release of hydromorphone (as %-AUC by HPLC) ([1]; Water, ambient temperature, 60 min.): 0%
- exposure (AUC) to hydromorphone at doses above the therapeutic level [2]: reached a plateau

Compound: 2-aminobenzoate-hydrocodone [Compound 2-Abz-HC]
- hydrocodone AUC, lower than Hydrocodone.BT [3, 10]: approximately 35%
- hydrocodone Cmax, lower than Hydrocodone.BT [3, 10]: ~60%
- hydrocodone Tmax compared with Hydrocodone.BT [3, 10]: approximately four times longer
- hydromorphone AUC, lower than Hydrocodone.BT [3, 10]: approximately 25%
- hydromorphone Cmax, lower than Hydrocodone.BT [3, 10]: ~50%
- %-release in 1 N HCl ([4]; 100° C. oil bath): 16%
- %-release in 1 N HCl ([4]; ambient (~20° C.)): 0%
- amount of conjugate hydrolyzed in water ([5]; 100° C. oil bath): 0%
- amount of conjugate hydrolyzed in water [5, 11]: 0%

Compound: COc1ccc(C(=O)OC2=CC[C@H]3[C@H]4Cc5ccc(OC)c6c5[C@@]3(CCN4C)C2O6)cc1O (stereo partly drawn) [3-OH-4-MeO-Bz-HC]
- solubility in water (intravenous administration at oral equivalent doses) [6]: hydrophobic
- %-release in 5% NaHCO3 ([7]; 100° C. oil bath): 36%
- %-release in 5% NaHCO3 ([7]; ambient (~20° C.)): 0%
- %-release in 1 N HCl ([4]; 100° C. oil bath): 35%
- %-release in 1 N HCl ([4]; ambient (~20° C.)): 0%

Compound: Tyr-Tyr-Phe-Phe-Ile-Hydrocodone (YYFFI-hydrocodone) [YYFFI-HC]
- %-release in 5% NaHCO3 ([7]; 100° C. oil bath): 70%
- %-release in 5% NaHCO3 ([7]; ambient (~20° C.)): 0%

Compound: COc1ccc(C(=O)OC2=CC[C@H]3[C@H]4Cc5ccc(OC)c6c5[C@@]3(CCN4C)C2O6)cc1 (stereo partly drawn) [Compound 4-MeO-Bz-HC]
- solubility in water (intravenous administration at oral equivalent doses) [6]: hydrophobic
- amount of conjugate hydrolyzed in water ([5]; 100° C. oil bath): 0%
- amount of conjugate hydrolyzed in water [5, 11]: 0%

Compound: COc1ccc2c3c1OC1C(OC(=O)c4ccc5c(c4)OCO5)=CC[C@H]4[C@@H](C2)N(C)CC[C@]314 (stereo partly drawn) [Piperonylate-HC]
- solubility in water (intravenous administration at oral equivalent doses) [6]: hydrophobic

Compound: COc1ccc2c3c1OC1C(OC(=O)CCCCC(=O)O)=CC[C@H]4[C@@H](C2)N(C)CC[C@]314 (stereo partly drawn) [Adipate-HC]
- AUC for hydromorphone released from Adipate-HC, higher than Bz-HC (sentence on hydrocodone plasma concentrations, FIG. 3) [8]: approximately 280%
- Cmax for hydromorphone released from Adipate-HC, higher than Bz-HC (sentence on hydrocodone plasma concentrations, FIG. 3) [8]: ~60%
- hydromorphone AUC, higher than Bz-HC (FIG. 4) [8]: approximately 750%
- hydromorphone Cmax, higher than Bz-HC (FIG. 4) [8]: ~660%
- solubility in water (intravenous administration at oral equivalent doses) [6]: water soluble
- %-release in 5% NaHCO3 ([7]; 100° C. oil bath): 100%
- %-release in 5% NaHCO3 ([7]; ambient (~20° C.)): 3%
- %-release in 1 N HCl ([4]; 100° C. oil bath): 100%
- %-release in 1 N HCl ([4]; ambient (~20° C.)): 13%

Compound: COc1ccc2c3c1OC1C(OC(=O)COCC(=O)O)=CC[C@H]4[C@@H](C2)N(C)CC[C@]314 (stereo partly drawn) [Diglycolate-HC, reference compound]
- solubility in water (intravenous administration at oral equivalent doses) [6]: water soluble

Compound: COc1ccc2c3c1OC1C(OC(=O)c4ccccc4)=CCC4C(C2)N(C)CCC314 (stereo not drawn) [Bz-HC, benzhydrocodone]
- solubility in water (intravenous administration at oral equivalent doses) [6]: hydrophobic
- water solubility (or solubility in PBS) ([6]; 0.30 mg/kg close to the maximum intravenous dose in rats): poor
- AUC for intact Bz-HC as % of the AUC for hydrocodone [9]: approximately 10%
- maximum plasma concentrations of hydromorphone versus dose ([3]; doses above 2.00 mg/kg): did not significantly change
- exposures (AUC) to hydrocodone and hydromorphone versus dose ([3]; doses between 0.25 and 4.00 mg/kg): fairly linear
- AUC for intact Bz-HC as % of the AUC for hydrocodone [3, 12]: approximately 10%
- AUC for intact Bz-HC as % of the AUC for hydromorphone [3, 12]: ~3%
- hydrocodone Cmax compared with Hydrocodone.BT [3, 10]: approximately equal
